{
  "source": "patent US4110327A",
  "about": "“2,3 Diketo-piperazinocarbonylamino alkanoic acids and derivatives” (Toyama Chemical Co., Ltd., priority 1974, dated 1978)",
  "key": {"[1]": {"assay": "Acute toxicity LD50 i.v. in mouse", "conditions": "in vivo, iv", "description": "The present penicillins and cephalosporins have generally low toxicity."}, "Klebsiella pneumoniae [2]": {"test_system": "Klebsiella pneumoniae", "assay": "MIC against standard strain, plate method", "type": "cell-based", "conditions": "unit assumed", "how_it_was_run": "(§1)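 Minimum inhibitory concentrations were determined on agar plates of heart infusion medium (pH 7.4) inoculated with 10^4 cells per plate.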"}, "[3]": {"test_system": "Pseudomonas aeruginosa I.F.O.", "assay": "MIC against standard strain, plate method", "type": "cell-based", "conditions": "unit assumed", "how_it_was_run": "as §1"}, "[4]": {"test_system": "Staphylococcus aureus 209p", "assay": "MIC against standard strain, plate method", "type": "cell-based", "conditions": "unit assumed", "how_it_was_run": "as §1"}, "Escherichia coli NIHJ": {"test_system": "Escherichia coli NIHJ", "assay": "MIC against standard strain, plate method", "type": "cell-based", "conditions": "unit assumed", "how_it_was_run": "as §1"}, "Proteus vulgaris 3027": {"test_system": "Proteus vulgaris 3027", "assay": "MIC against standard strain, plate method", "type": "cell-based", "conditions": "Proteus vulgaris 3027, standard strain; unit assumed", "how_it_was_run": "as §1"}, "Shigella sonnei": {"test_system": "Shigella sonnei", "assay": "MIC against clinical isolates", "type": "cell-based", "conditions": "clinical isolate JS 11232; unit assumed", "method": "(§2) The minimum inhibitory concentrations (MIC) was determined by the plate method disclosed in \"Chemotherapy\" (Japan), Vol. 16, (1968), pages 98 - 99. The culture medium used was a Heart infusion agar (pH 7.4). The number of the cells per plate used in the inoculum as 10^4 (10^6 cells/ml).\n(§3) MIC was determined in the same manner as in the preceding paragraph (1)."}, "Shigella flexneri": {"test_system": "Shigella flexneri", "assay": "MIC against clinical isolates", "type": "cell-based", "conditions": "clinical isolate JS 11215; unit assumed", "method": "as §2, §3"}, "Staphylococcus aureus": {"test_system": "Staphylococcus aureus", "assay": "MIC against clinical isolates", "type": "cell-based", "conditions": "unit assumed"}, "Escherichia coli": {"test_system": "Escherichia coli", "assay": "MIC against clinical isolates", "type": "cell-based", "conditions": "unit assumed"}, "Salmonella typhi": {"test_system": "Salmonella typhi", "assay": "MIC against clinical isolates", "type": "cell-based", "conditions": "unit assumed"}, "Salmonella typhi-murium": {"test_system": "Salmonella typhi-murium", "assay": "MIC against clinical isolates", "type": "cell-based", "conditions": "unit assumed"}, "Klebsiella pneumoniae [5]": {"test_system": "Klebsiella pneumoniae", "assay": "MIC against clinical isolates", "type": "cell-based", "conditions": "unit assumed"}, "Proteus morganii": {"test_system": "Proteus morganii", "assay": "MIC against clinical isolates", "type": "cell-based", "conditions": "clinical isolate, unit assumed"}, "Proteus mirabilis": {"test_system": "Proteus mirabilis", "assay": "MIC against clinical isolates", "type": "cell-based", "conditions": "clinical isolate, unit assumed"}, "Proteus rettgeri": {"test_system": "Proteus rettgeri", "assay": "MIC against clinical isolates", "type": "cell-based", "conditions": "clinical isolate, unit assumed"}, "β-lactamase": {"test_system": "β-lactamase", "assay": "Resistant activity against β-lactamase, iodometric assay", "type": "biochemical, Pseudomonas aeruginosa GN 238", "conditions": "relative to Potassium Penicillin G = 100", "method": "(3) Resistant activity against β-lactamase, Pseudomonas aergionan GN 238:\nThe resistant activity of each compound against β-lactamase was measured in the manner described below.\nβ-Lactamase was prepared from Pseudomonas aeruginosa GN 238. This microorganism was cultured in 100 ml of a medium containing 2 g of yeast extract, 10 g of polypeptone, 2 g of glucose, 7 g of disodium hydrogen phosphate, 2 g of potassium dihydrogen phosphate, 1.2 g of ammonium sulfate and 0.4 g of magnesium sulfate, per liter, in a 500-ml Erlenmeyer flask for 6 hrs. at 37° C with shaking. The resulting cells were collected by centrifugation (5,000 r.p.m. × 10 min.), washed three times with 0.1 M phosphate buffer (pH 7.0). Subsequently, the cells were subjected to sonication (20 KHz, 20 min.) and then centrifuged at 15,000 r.p.m. for 60 min. By using the supernatant of enzyme fluid, the resistance of each compound against β-lactamase was determined by the iodometric assay method. Each numeral shown in Table 7 is a relative activity value calculated by assuming as 100 the activity of the control Potassium Penicillin G."}, "Pseudomonas aeruginosa": {"test_system": "Pseudomonas aeruginosa", "assay": "MIC against clinical isolates", "type": "cell-based", "conditions": "unit assumed"}, "Proteus vulgaris": {"test_system": "Proteus vulgaris", "assay": "MIC against clinical isolates", "type": "cell-based", "conditions": "clinical isolate, unit assumed"}},
  "data": [
    {"smiles": "CCN1CCN(C(=O)N[C@@H](C(=O)N[C@@H]2C(=O)N3[C@@H]2SC(C)(C)[C@@H]3C(=O)O)c2ccccc2)C(=O)C1=O", "values": [
      {"measurement": "LD50", "setting": "[1]", "value": "> 5000", "unit": "mg/kg"}
    ]},
    {"smiles": "CN1CCN(C(=O)N[C@@H](C(=O)N[C@@H]2C(=O)N3[C@@H]2SC(C)(C)[C@@H]3C(=O)O)c2ccccc2)C(=O)C1=O", "values": [
      {"measurement": "LD50", "setting": "[1]", "value": "> 5000", "unit": "mg/kg"}
    ]},
    {"smiles": "CCCCCN1CCN(C(=O)N[C@@H](C(=O)N[C@@H]2C(=O)N3[C@@H]2SC(C)(C)[C@@H]3C(=O)O)c2ccccc2)C(=O)C1=O", "note": "(single isomer, unassigned) [compound 45]", "values": [
      {"measurement": "MIC", "setting": "Klebsiella pneumoniae [2]", "value": 0.79, "unit": "µg/mL"},
      {"measurement": "MIC", "setting": "[3]", "value": 12.5, "unit": "µg/mL"},
      {"measurement": "MIC", "setting": "[4]", "value": 0.79, "unit": "µg/mL"},
      {"measurement": "MIC", "setting": "Escherichia coli NIHJ", "value": "< 0.1", "unit": "µg/mL"},
      {"measurement": "MIC", "setting": "Proteus vulgaris 3027", "value": 0.4, "unit": "µg/mL"},
      {"measurement": "MIC", "setting": "Shigella sonnei", "value": 25, "unit": "µg/mL"},
      {"measurement": "MIC", "setting": "Shigella flexneri", "value": 25, "unit": "µg/mL"},
      {"measurement": "MIC", "setting": "Staphylococcus aureus; clinical isolate F-1", "value": 6.25, "unit": "µg/mL"},
      {"measurement": "MIC", "setting": "Staphylococcus aureus; clinical isolate F-4", "value": 6.25, "unit": "µg/mL"},
      {"measurement": "MIC", "setting": "Staphylococcus aureus; clinical isolate F-5", "value": "> 200", "unit": "µg/mL"},
      {"measurement": "MIC", "setting": "Staphylococcus aureus; clinical isolate MS 8588", "value": 3.13, "unit": "µg/mL"},
      {"measurement": "MIC", "setting": "Staphylococcus aureus; clinical isolate MS 8596", "value": 3.13, "unit": "µg/mL"},
      {"measurement": "MIC", "setting": "Staphylococcus aureus; clinical isolate MS 8619", "value": 0.79, "unit": "µg/mL"},
      {"measurement": "MIC", "setting": "Staphylococcus aureus; clinical isolate MS 8684", "value": 3.13, "unit": "µg/mL"},
      {"measurement": "MIC", "setting": "Staphylococcus aureus; clinical isolate MS 8713", "value": 6.25, "unit": "µg/mL"},
      {"measurement": "MIC", "setting": "Escherichia coli; clinical isolate GN 3435", "value": 0.79, "unit": "µg/mL"},
      {"measurement": "MIC", "setting": "Escherichia coli; clinical isolate GN 3465", "value": 25, "unit": "µg/mL"},
      {"measurement": "MIC", "setting": "Escherichia coli; clinical isolate GN 3611", "value": "> 200", "unit": "µg/mL"},
      {"measurement": "MIC", "setting": "Escherichia coli; clinical isolate K-1", "value": 0.79, "unit": "µg/mL"},
      {"measurement": "MIC", "setting": "Escherichia coli; clinical isolate K-3", "value": 200, "unit": "µg/mL"},
      {"measurement": "MIC", "setting": "Escherichia coli; clinical isolate K-4", "value": 0.79, "unit": "µg/mL"},
      {"measurement": "MIC", "setting": "Salmonella typhi; clinical isolate SL 819", "value": 1.57, "unit": "µg/mL"},
      {"measurement": "MIC", "setting": "Salmonella typhi; clinical isolate SL 2169", "value": 0.79, "unit": "µg/mL"},
      {"measurement": "MIC", "setting": "Salmonella typhi-murium; clinical isolate SL 858", "value": 0.79, "unit": "µg/mL"},
      {"measurement": "MIC", "setting": "Salmonella typhi-murium; clinical isolate SL 2136", "value": 200, "unit": "µg/mL"},
      {"measurement": "MIC", "setting": "Klebsiella pneumoniae [5]; clinical isolate GN 3850", "value": 3.13, "unit": "µg/mL"},
      {"measurement": "MIC", "setting": "Klebsiella pneumoniae [5]; clinical isolate GN 4081", "value": 25, "unit": "µg/mL"},
      {"measurement": "MIC", "setting": "Klebsiella pneumoniae [5]; clinical isolate GN 4117", "value": 25, "unit": "µg/mL"},
      {"measurement": "MIC", "setting": "Proteus morganii", "value": 0.79, "unit": "µg/mL"},
      {"measurement": "MIC", "setting": "Proteus mirabilis", "value": "< 0.4", "unit": "µg/mL"},
      {"measurement": "MIC", "setting": "Proteus rettgeri", "value": 6.25, "unit": "µg/mL"},
      {"measurement": "Relative activity", "setting": "β-lactamase", "value": 16, "unit": "%"},
      {"measurement": "MIC", "setting": "Pseudomonas aeruginosa; clinical isolate GN 82", "value": 12.5, "unit": "µg/mL"},
      {"measurement": "MIC", "setting": "Pseudomonas aeruginosa; clinical isolate GN 163", "value": 12.5, "unit": "µg/mL"},
      {"measurement": "MIC", "setting": "Pseudomonas aeruginosa; clinical isolate GN 221", "value": 3.13, "unit": "µg/mL"},
      {"measurement": "MIC", "setting": "Pseudomonas aeruginosa; clinical isolate GN 376", "value": 25, "unit": "µg/mL"},
      {"measurement": "MIC", "setting": "Pseudomonas aeruginosa; clinical isolate GN 383", "value": 25, "unit": "µg/mL"},
      {"measurement": "MIC", "setting": "Pseudomonas aeruginosa; clinical isolate GN 1035", "value": 50, "unit": "µg/mL"},
      {"measurement": "MIC", "setting": "Pseudomonas aeruginosa; clinical isolate GN 1091", "value": 12.5, "unit": "µg/mL"},
      {"measurement": "MIC", "setting": "Pseudomonas aeruginosa; clinical isolate GN 2565", "value": 25, "unit": "µg/mL"},
      {"measurement": "MIC", "setting": "Pseudomonas aeruginosa; clinical isolate GN 2987", "value": 12.5, "unit": "µg/mL"},
      {"measurement": "MIC", "setting": "Pseudomonas aeruginosa; clinical isolate GN (number not given; Table 5-3)", "value": 25, "unit": "µg/mL"},
      {"measurement": "MIC", "setting": "Pseudomonas aeruginosa; clinical isolate S-1", "value": 25, "unit": "µg/mL"},
      {"measurement": "MIC", "setting": "Pseudomonas aeruginosa; clinical isolate S-2", "value": 25, "unit": "µg/mL"},
      {"measurement": "MIC", "setting": "Pseudomonas aeruginosa; clinical isolate S-3", "value": 50, "unit": "µg/mL"},
      {"measurement": "MIC", "setting": "Pseudomonas aeruginosa; clinical isolate S-4", "value": 25, "unit": "µg/mL"},
      {"measurement": "MIC", "setting": "Proteus vulgaris", "value": "< 0.4", "unit": "µg/mL"}
    ]}
  ]
}
